In ChEMBL document CHEMBL5465560, “Selectivity Literature for EUbOPEN Chemogenomic Library” (2024):

Key:
[1] = molecular target: T1, Serine/threonine-protein kinase Nek1 (Homo sapiens) (UniProt Q96PY6); test: Selectivity interaction (KinomeScan (DiscoverX)) EUB0000045b NEK1
T1 sequence (whole entry): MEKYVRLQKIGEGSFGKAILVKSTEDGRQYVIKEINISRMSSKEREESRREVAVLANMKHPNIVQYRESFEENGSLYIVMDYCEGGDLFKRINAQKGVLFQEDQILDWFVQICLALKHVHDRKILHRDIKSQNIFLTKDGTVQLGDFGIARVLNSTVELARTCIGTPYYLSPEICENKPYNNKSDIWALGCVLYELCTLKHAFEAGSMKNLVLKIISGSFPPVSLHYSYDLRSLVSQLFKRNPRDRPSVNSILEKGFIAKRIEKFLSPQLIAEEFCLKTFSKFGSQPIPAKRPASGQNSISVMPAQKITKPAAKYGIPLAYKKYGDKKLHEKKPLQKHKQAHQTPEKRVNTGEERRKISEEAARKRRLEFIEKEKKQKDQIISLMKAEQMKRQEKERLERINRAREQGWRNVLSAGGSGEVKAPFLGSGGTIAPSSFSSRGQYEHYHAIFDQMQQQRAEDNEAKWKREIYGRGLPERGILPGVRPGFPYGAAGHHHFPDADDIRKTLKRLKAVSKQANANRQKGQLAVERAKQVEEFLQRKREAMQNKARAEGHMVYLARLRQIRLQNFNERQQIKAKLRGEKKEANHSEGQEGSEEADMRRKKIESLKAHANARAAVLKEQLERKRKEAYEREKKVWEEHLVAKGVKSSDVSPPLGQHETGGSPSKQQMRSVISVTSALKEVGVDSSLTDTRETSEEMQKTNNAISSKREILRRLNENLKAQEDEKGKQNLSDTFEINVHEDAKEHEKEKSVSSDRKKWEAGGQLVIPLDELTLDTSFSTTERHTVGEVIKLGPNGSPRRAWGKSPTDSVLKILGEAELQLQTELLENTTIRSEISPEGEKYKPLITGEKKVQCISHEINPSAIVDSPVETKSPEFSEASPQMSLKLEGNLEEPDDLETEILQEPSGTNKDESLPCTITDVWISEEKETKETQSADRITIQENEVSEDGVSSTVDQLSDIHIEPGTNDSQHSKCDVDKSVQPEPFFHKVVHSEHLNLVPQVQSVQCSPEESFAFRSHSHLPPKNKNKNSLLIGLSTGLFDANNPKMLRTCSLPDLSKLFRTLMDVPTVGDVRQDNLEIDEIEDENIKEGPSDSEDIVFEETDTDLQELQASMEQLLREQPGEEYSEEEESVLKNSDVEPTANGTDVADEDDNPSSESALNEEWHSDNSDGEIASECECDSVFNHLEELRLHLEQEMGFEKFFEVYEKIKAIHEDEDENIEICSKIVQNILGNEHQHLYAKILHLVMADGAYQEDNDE

[2] = molecular target: T2, Serine/threonine-protein kinase 17B (Homo sapiens) (UniProt O94768); test: Selectivity interaction (LanthaScreen Eu Kinase Binding Assay) EUB0001632a STK17B; details: at 10 µM
T2 sequence (whole entry): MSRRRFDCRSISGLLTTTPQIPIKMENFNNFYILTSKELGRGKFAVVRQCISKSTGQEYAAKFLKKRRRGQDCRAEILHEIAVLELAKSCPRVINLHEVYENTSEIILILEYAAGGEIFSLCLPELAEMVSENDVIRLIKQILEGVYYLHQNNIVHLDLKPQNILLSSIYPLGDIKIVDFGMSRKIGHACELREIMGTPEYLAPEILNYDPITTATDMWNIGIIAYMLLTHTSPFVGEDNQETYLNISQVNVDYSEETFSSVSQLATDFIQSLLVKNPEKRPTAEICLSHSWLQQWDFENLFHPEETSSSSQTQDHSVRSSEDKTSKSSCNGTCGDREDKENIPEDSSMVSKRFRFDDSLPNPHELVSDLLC

[3] = molecular target: T3, Rhodopsin kinase GRK7 (Homo sapiens) (UniProt Q8WTQ7); test: Selectivity interaction (KinomeScan (DiscoverX)) EUB0001619a GRK7; details: at 1 µM
T3 sequence (whole entry): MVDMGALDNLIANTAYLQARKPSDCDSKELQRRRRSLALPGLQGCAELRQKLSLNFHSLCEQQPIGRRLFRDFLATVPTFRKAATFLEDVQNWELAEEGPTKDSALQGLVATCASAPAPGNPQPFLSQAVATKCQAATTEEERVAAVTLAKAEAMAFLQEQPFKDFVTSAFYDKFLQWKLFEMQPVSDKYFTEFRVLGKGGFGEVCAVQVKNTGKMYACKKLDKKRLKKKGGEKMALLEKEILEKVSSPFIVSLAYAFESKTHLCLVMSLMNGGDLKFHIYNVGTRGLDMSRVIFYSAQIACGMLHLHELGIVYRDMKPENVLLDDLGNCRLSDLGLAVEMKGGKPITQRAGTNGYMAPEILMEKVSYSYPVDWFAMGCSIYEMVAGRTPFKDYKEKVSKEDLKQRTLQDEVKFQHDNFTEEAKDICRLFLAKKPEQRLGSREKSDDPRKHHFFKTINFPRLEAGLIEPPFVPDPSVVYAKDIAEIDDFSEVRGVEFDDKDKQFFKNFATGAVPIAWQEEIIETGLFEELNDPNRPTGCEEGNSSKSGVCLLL

[4] = molecular target: BDNF/NT-3 growth factors receptor (Homo sapiens) (UniProt Q16620); test: Selectivity interaction (SelectScreen profiling (Invitrogen)) EUB0000607a NTRK2; details: at 2 µM
[5] = molecular target: Cyclin-dependent kinase 14 (Homo sapiens) (UniProt O94921); test: Selectivity interaction (ActivX KiNativ screen (kinase selectivity in THP-1 cell lysates)) EUB0000639a CDK14; format: subcellular; details: lysate, at 0.01 µM
Cyclin-dependent kinase 14 (Homo sapiens), sequence (O94921 whole entry): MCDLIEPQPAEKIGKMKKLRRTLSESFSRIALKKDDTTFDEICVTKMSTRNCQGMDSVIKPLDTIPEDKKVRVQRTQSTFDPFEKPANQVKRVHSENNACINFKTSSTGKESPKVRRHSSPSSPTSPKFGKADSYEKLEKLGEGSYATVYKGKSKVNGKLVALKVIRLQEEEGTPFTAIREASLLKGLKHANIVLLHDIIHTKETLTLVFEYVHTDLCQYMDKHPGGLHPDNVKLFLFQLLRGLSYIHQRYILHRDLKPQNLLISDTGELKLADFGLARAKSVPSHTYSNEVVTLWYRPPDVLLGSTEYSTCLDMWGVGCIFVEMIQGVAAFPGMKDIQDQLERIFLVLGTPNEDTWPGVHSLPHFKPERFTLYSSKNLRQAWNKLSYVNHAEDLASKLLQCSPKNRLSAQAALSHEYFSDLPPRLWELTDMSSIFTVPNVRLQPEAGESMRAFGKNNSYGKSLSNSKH

BDNF/NT-3 growth factors receptor (Homo sapiens), sequence (Q16620 32-822 limits assumed): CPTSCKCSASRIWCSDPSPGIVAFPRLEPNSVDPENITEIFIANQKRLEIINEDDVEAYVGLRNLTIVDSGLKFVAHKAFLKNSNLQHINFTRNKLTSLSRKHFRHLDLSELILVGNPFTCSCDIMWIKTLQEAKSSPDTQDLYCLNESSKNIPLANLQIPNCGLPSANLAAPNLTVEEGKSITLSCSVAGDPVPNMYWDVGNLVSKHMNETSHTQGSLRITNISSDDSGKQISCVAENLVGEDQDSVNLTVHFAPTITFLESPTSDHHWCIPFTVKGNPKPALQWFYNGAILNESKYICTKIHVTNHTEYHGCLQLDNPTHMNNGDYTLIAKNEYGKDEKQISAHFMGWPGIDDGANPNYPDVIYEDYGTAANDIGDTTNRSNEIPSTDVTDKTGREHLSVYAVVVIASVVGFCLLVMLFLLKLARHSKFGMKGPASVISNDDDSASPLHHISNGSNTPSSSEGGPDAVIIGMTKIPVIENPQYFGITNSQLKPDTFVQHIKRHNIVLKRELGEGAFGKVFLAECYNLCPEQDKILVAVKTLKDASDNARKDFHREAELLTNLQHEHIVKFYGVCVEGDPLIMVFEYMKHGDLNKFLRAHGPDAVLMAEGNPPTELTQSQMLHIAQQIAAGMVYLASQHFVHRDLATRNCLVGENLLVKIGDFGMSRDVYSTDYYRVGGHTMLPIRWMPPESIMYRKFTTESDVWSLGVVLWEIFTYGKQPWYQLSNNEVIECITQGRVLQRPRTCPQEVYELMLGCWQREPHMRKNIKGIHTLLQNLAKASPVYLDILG

`C=CC(=O)Nc1cc(-n2c(=O)ccc3cnc4ccc(-c5ccc(NS(C)(=O)=O)cc5)cc4c32)ccc1C` showed a % of control ([1]; at 1 µM) of 100% and a % of control ([1]; at 10 µM) of 81%.

In the case of `Cn1cc(-n2cnc3c(NCc4nc5cc(Cl)c(Cl)cc5[nH]4)nc(N4CCOCC4)nc32)cn1`, the % of inhibition [2] was -19.1%.

With `N#Cc1cccc(-c2c[nH]c3ncnc(N4CCOCC4)c23)c1` the % of control [3] was 37%.

`CNC(=O)Nc1ccc(-c2nc(N3CC4CCC(C3)O4)c3cnn(C4CCC5(CC4)OCCO5)c3n2)cc1` showed a % of inhibition [4] of 1%.

`CC[C@@H]1[C@H](F)C(=O)N[C@@H]1COc1nccc2cc(C(N)=O)c(OC)cc12` [ZIMLOVISERTIB] showed a % of inhibition [5] of -16.8%.
